Results reported in patent US10233182B2, “Substituted spirocyclic inhibitors of autotaxin” (X-Rx, Inc., priority 2014, dated 2019).
pIC50: −log10 of the molar value. Counter-ions that a name gives are not always drawn.

target: Autotaxin (Homo sapiens (Human), UniProt Q13822); assay: Autotaxin LPC Cascade Assay; format: biochemical; settings: Autotaxin 5 nM, LPC 100 μM, choline oxidase/HRP/Ampliflu Red fluorescence read-out, 2% DMSO, RT; read-out: IC50 ATX Activity
Method in brief: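 Choline liberated from LPC by autotaxin during 1 h, after a 10-min RT compound preincubation, was converted through choline oxidase/HRP to a fluorescent Ampliflu Red product.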

Structure (SMILES)	pIC50
CCc1ccc(F)c(C(=O)N[C@@H](C(=O)N2CCC3(CC2)C(=O)N(C)CN3c2ccc3oc(=O)n(C)c3c2)C(C)C)c1 [Example 203, (R)-5-Ethyl-2-fluoro-N-(3-methyl-1-(3-methyl-1-(3-methyl-2-oxo-2,3-dihydrobenzo[d]oxazol-5-yl)-4-oxo-1,3,8-triazaspiro[4.5]decan-8-yl)-1-oxobutan-2-yl)benzamide]	> 6.30
CC(C)[C@@H](NC(=O)c1cc(OC(F)F)ccc1F)C(=O)N1CCC2(CC1)C(=O)N(C)C(=O)N2c1ccc(C(=O)O)cc1 [Example 166, (R)-4-(8-(2-(5-(Difluoromethoxy)-2-fluorobenzamido)-3-methylbutanoyl)-3-methyl-2,4-dioxo-1,3,8-triazaspiro[4.5]decan-1-yl)benzoic Acid]	> 6.30
CC(C)[C@H](C(=O)N1CCC2(CC1)C(=O)N(C)C(=O)N2c1ccc2[nH]ncc2c1)N(C)C(=O)c1cc(C(F)(F)F)ccc1F [Example 236, (R)—N-(1-(1-(1H-Indazol-5-yl)-3-methyl-2,4-dioxo-1,3,8-triazaspiro[4.5]decan-8-yl)-3-methyl-1-oxobutan-2-yl)-2-fluoro-N-methyl-5-(trifluoromethyl)benzamide]	≤ 6.00
CC(C)[C@@H](NC(=O)c1cc(C(F)(F)F)ccc1F)C(=O)N1CCC2(CC1)C(=O)N(C)C(=O)N2[C@H](C)c1ccccc1 [Example 80, 2-Fluoro-N—((R)-3-methyl-1-(3-methyl-2,4-dioxo-1-((R)-1-phenylethyl)-1,3,8-triazaspiro[4.5]decan-8-yl)-1-oxobutan-2-yl)-5-(trifluoromethyl)benzamide]	≤ 6.00
CC(C)[C@@H](NC(=O)c1cc(C(F)(F)F)ccc1F)C(=O)N1CCC2(CC1)C(=O)N(C)C(=O)N2c1ccc(-c2nn[nH]n2)cc1 [Example 224, (R)—N-(1-(1-(4-(2H-Tetrazol-5-yl)phenyl)-3-methyl-2,4-dioxo-1,3,8-triazaspiro[4.5]decan-8-yl)-3-methyl-1-oxobutan-2-yl)-2-fluoro-5-(trifluoromethyl)benzamide]	> 6.30
Cc1cccc(C(=O)N[C@@H](C(=O)N2CCC3(CC2)C(=O)N(C)CN3c2cccnc2)C(C)C)c1 [Example 195, (R)-3-Methyl-N-(3-methyl-1-(3-methyl-4-oxo-1-(pyridin-3-yl)-1,3,8-triazaspiro[4.5]decan-8-yl)-1-oxobutan-2-yl)benzamide]	≤ 6.00
Cc1ccc(F)c(C(=O)N[C@@H](C(=O)N2CCC3(CC2)C(=O)N(C)C(=O)N3c2ccc3[nH]ncc3c2)C(C)C)c1 [Example 56, (R)—N-(1-(1-(1H-Indazol-5-yl)-3-methyl-2,4-dioxo-1,3,8-triazaspiro[4.5]decan-8-yl)-3-methyl-1-oxobutan-2-yl)-2-fluoro-5-methylbenzamide]	> 6.30
Cc1cccc(C(=O)N[C@@H](C(=O)N2CCC3(CC2)C(=O)N(CCCS(C)(=O)=O)CN3c2ccccc2)C(C)C)c1F [Example 177, (R)-2-Fluoro-3-methyl-N-(3-methyl-1-(3-(3-(methylsulfonyl)propyl)-4-oxo-1-phenyl-1,3,8-triazaspiro[4.5]decan-8-yl)-1-oxobutan-2-yl)benzamide]	> 6.30
CC(C)[C@@H](NC(=O)c1cc(C(F)(F)F)ccc1F)C(=O)N1CCC2(CC1)C(=O)N(C)CN2c1ccc2nccn2c1 [Example 206, (R)-2-Fluoro-N-(1-(1-(imidazo[1,2-a]pyridin-6-yl)-3-methyl-4-oxo-1,3,8-triazaspiro[4.5]decan-8-yl)-3-methyl-1-oxobutan-2-yl)-5-(trifluoromethyl)benzamide trifluoroacetic Acid Salt]	> 6.30
COc1cccc(N2CN(C)C(=O)C23CCN(C(=O)[C@H](NC(=O)c2cccc(C)c2)C(C)C)CC3)c1 [Example 198, (R)—N-(1-(1-(3-Methoxyphenyl)-3-methyl-4-oxo-1,3,8-triazaspiro[4.5]decan-8-yl)-3-methyl-1-oxobutan-2-yl)-3-methylbenzamide]	> 6.30
CCc1ccc(F)c(C(=O)N[C@@H](C(=O)N2CCC3(CC2)C(=O)N(C)CN3c2ccc3[nH]ncc3c2)C(C)C)c1 [Example 215, (R)—N-(1-(1-(1H-Indazol-5-yl)-3-methyl-4-oxo-1,3,8-triazaspiro[4.5]decan-8-yl)-3-methyl-1-oxobutan-2-yl)-5-ethyl-2-fluorobenzamide]	> 6.30
CN1CN(c2ccc(=O)n(C)c2)C2(CCN(C(=O)[C@H](NC(=O)c3cc(C(F)(F)F)ccc3F)C3CCCC3)CC2)C1=O [Example 208, (R)—N-(1-Cyclopentyl-2-(3-methyl-1-(1-methyl-6-oxo-1,6-dihydropyridin-3-yl)-4-oxo-1,3,8-triazaspiro[4.5]decan-8-yl)-2-oxoethyl)-2-fluoro-5-(trifluoromethyl)benzamide]	> 6.30
COc1ccc(N2C(C)N(C)C(=O)C23CCN(C(=O)[C@H](NC(=O)c2cc(C(F)(F)F)ccc2F)C(C)C)CC3)cc1 (stereo partly drawn) [Example 209, 2-Fluoro-N-((2R)-1-(1-(4-methoxyphenyl)-2,3-dimethyl-4-oxo-1,3,8-triazaspiro[4.5]decan-8-yl)-3-methyl-1-oxobutan-2-yl)-5-(trifluoromethyl)benzamide]	> 6.30
COc1cc(N2CN(C)C(=O)C23CCN(C(=O)[C@H](NC(=O)c2cc(C(F)(F)F)ccc2F)C(C)C)CC3)ccc1C(=O)O [Example 151]	> 6.30
CC(C)[C@@H](NC(=O)c1cc(C(F)(F)F)ccc1F)C(=O)N1CCC2(CC1)C(=O)N(C)C(=O)N2c1cc[n+]([O-])cc1 [Example 240, (R)-4-(8-(2-(2-Fluoro-5-(trifluoromethyl)benzamido)-3-methylbutanoy)-3-methyl-2,4-dioxo-1,3,8-triazaspiro[4.5]decan-1-yl)pyridine 1-oxide]	≤ 6.00
CC(C)[C@@H](NC(=O)c1cc(C(F)(F)F)ccc1F)C(=O)N1CCC2(CC1)C(=O)N(C)CN2c1ccc(C(=O)O)cc1 [Example 149, (R)-4-(8-(2-(2-Fluoro-5-(trifluoromethyl)benzamido)-3-methylbutanoyl)-3-methyl-4-oxo-1,3,8-triazaspiro[4.5]decan-1-yl)benzoic Acid]	> 6.30
CN1C(=O)N(c2ccc3[nH]ncc3c2)C2(CCN(C(=O)C(C)(C)NC(=O)c3cc(C(F)(F)F)ccc3F)CC2)C1=O [Example 74, N-(1-(1-(1H-Indazol-5-yl)-3-methyl-2,4-dioxo-1,3,8-triazaspiro[4.5]decan-8-yl)-2-methyl-1-oxopropan-2-yl)-2-fluoro-5-(trifluoromethyl)benzamide]	≤ 6.00
CC(C)[C@@H](NC(=O)C1CCCCC1)C(=O)N1CCC2(CC1)C(=O)N(C)C(=O)N2c1ccc2[nH]ncc2c1 [Example 230, (R)—N-(1-(1-(1H-Indazol-5-yl)-3-methyl-2,4-dioxo-1,3,8-triazaspiro[4.5]decan-8-yl)-3-methyl-1-oxobutan-2-yl)cyclohexanecarboxamide]	≤ 6.00
CC(C)[C@@H](NC(=O)c1cc(C(F)(F)F)ccc1F)C(=O)N1CCC2(CC1)C(=O)N(C)CN2c1ccc(C(=O)O)c(Cl)c1 [Example 154, (R)-2-Chloro-4-(8-(2-(2-fluoro-5-(trifluoromethyl)benzamido)-3-methylbutanoyl)-3-methyl-4-oxo-1,3,8-triazaspiro[4.5]decan-1-yl)benzoic Acid]	> 6.30
Cc1cccc(C(=O)N[C@@H](C(=O)N2CCC3(CC2)C(=O)N(C)CN3c2cccc(C(N)=O)c2)C(C)C)c1F [Example 146, (R)—N-(1-(1-(3-Carbamoylphenyl)-3-methyl-4-oxo-1,3,8-triazaspiro[4.5]decan-8-yl)-3-methyl-1-oxobutan-2-yl)-2-fluoro-3-methylbenzamide]	≤ 6.00
Cc1cccc(C(=O)N[C@@H](C(=O)N2CCC3(CC2)C(=O)N(C)CN3c2ccccc2Cl)C(C)C)c1 [Example 196, (R)—N-(1-(1-(2-Chlorophenyl)-3-methyl-4-oxo-1,3,8-triazaspiro[4.5]decan-8-yl)-3-methyl-1-oxobutan-2-yl)-3-methylbenzamide]	> 6.30
Cc1cc(CN2C(=O)N(C)C(=O)C23CCN(C(=O)[C@H](NC(=O)c2cc(C(F)(F)F)ccc2F)C(C)C)CC3)ccn1 [Example 95, (R)-2-Fluoro-N-(3-methyl-1-(3-methyl-1-((2-methylpyridin-4-yl)methyl)-2,4-dioxo-1,3,8-triazaspiro[4.5]decan-8-yl)-1-oxobutan-2-yl)-5-(trifluoromethyl)benzamide]	6.00 to 6.30
CC(C)[C@@H](NC(=O)c1cc(OC(F)F)ccc1F)C(=O)N1CCC2(CC1)C(=O)N(C)C(=O)N2c1ccc(-c2nn[nH]n2)cc1 [Example 226, (R)—N-(1-(1-(4-(2H-Tetrazol-5-yl)phenyl)-3-methyl-2,4-dioxo-1,3,8-triazaspiro[4.5]decan-8-yl)-3-methyl-1-oxobutan-2-yl)-5-(difluoromethoxy)-2-fluorobenzamide]	> 6.30
Cc1cccc(C(=O)N[C@@H](C(=O)N2CCC3(CC2)C(=O)N(C)CN3c2ccc(C(N)=O)cc2)C(C)C)c1F [Example 145, (R)—N-(1-(1-(4-Carbamoylphenyl)-3-methyl-4-oxo-1,3,8-triazaspiro[4.5]decan-8-yl)-3-methyl-1-oxobutan-2-yl)-2-fluoro-3-methylbenzamide]	6.00 to 6.30
Cc1cccc(C(=O)N[C@@H](C(=O)N2CCC3(CC2)C(=O)N(C)CN3c2ccc(C(=O)O)cc2)C(C)C)c1F [Example 150, (R)-4-(8-(2-(2-Fluoro-3-methylbenzamido)-3-methylbutanoyl)-3-methyl-4-oxo-1,3,8-triazaspiro[4.5]decan-1-yl)benzoic Acid]	> 6.30
Cc1cccc(C(=O)N[C@@H](C(=O)N2CCC3(CC2)C(=O)N(C)CN3c2ccccc2)C2CCOCC2)c1 (single isomer, unassigned) [Example 129]	6.00 to 6.30
COC(=O)c1ccc(N2C(=O)N(C)C(=O)C23CCN(C(=O)[C@H](NC(=O)c2cc(C(F)(F)F)ccc2F)C(C)C)CC3)cc1 [Example 221, (R)-Methyl-4-(8-(2-(2-fluoro-5-(trifluoromethyl)benzamido)-3-methylbutanoyl)-3-methyl-2,4-dioxo-1,3,8-triazaspiro[4.5]decan-1-yl)benzoate]	> 6.30
